# According to US5476840A, “New hexapeptidic derivatives, preparation process and use as medicaments of these new derivatives” (Roussel Uclaf, priority 1992, dated 1995):
# Ends that are not written are not given here.
# Experiments:
# [1] = system: demedullated rat; assay: Vasoconstrictive activity in a demedullated rat (increase in mean arterial pressure); format: in vivo; conditions: dose 10 mg/kg, venous route, demedullated male Sprague-Dawley rat
# Description: Male Sprague-Dawley rats are anaesthetized with Nembutal (60 mg/kg) injected by intraperitoneal route. The animals are then demedullated, put under assisted respiration (1 ml/100 g--50 insufflations per minute), then the vagus nerves are sectioned. A carotid artery is catheterized to record the arterial pressure and the products to be studied are injected into the pudendal vein.
# The animals receive endothelin 1 or the compound to be tested as cumulative injections by venous route, the administrations being spaced 2 minutes apart.
# The increase in mean arterial pressure (MAP) induced by each compound is measured and expressed as a percentage variation relative to the initial pressure.
# [2] = system: pressure response to endothelin; assay: Antagonism of the effects of endothelin in a demedullated rat (inhibition of the pressure response to endothelin 1); format: in vivo
# Description: Male Sprague-Dawley rats are anaesthetized with Nembutal (60 mg/kg) injected by intraperitoneal route. The animals are then demedullated, put under assisted respiration (1 ml/100 g--50 insufflations per minute), then the vagus nerves are sectioned. A carotid artery is catheterized to record the arterial pressure and the products to be studied are injected into the pudendal vein. Ten minutes after the intravenous injection of the solvent or compounds to be tested, the animals receive administrations of endothelin 1 in a cumulative manner (1, 3, 10 and 30 μg/kg i.v.) every 2 minutes. The antagonistic activity is expressed as a percentage of the inhibition of the pressure response to endothelin administered alone, at doses of 3 and 10 μg/kg.
substance,measurement,setting,value
HAAIIW [Example 1],% increase of MAP,[1],+8%
same,Percent change in pressure response to endothelin (negative = reduction),"[2]; dose 5 μg/kg i.v., 3 μg endothelin",-27
same,Percent change in pressure response to endothelin (negative = reduction),"[2]; dose 5 μg/kg i.v., 10 μg endothelin",-19
same,Percent change in pressure response to endothelin (negative = reduction),"[2]; dose 10 μg/kg i.v., 3 μg endothelin",-60
same,Percent change in pressure response to endothelin (negative = reduction),"[2]; dose 10 μg/kg i.v., 10 μg endothelin",-33
